Experiments:
[1] = Average plasma concentration of spinosad in dogs after oral dosing; assay type: in vivo
Excerpt: (§1) Methods: A pool of 40 dogs are to be screened before inclusion in this example by preliminarily infesting them with ˜100 unfed adult Ctenocephalidesfelis in order to produce a pool of dogs that can suitably sustain a reliable infestation rate of approximately 50% of live fleas over a 48-hour period. The dogs with the highest live flea counts are to be randomly allocated to 2 treatment groups (6 dogs per group) based on their pre-treatment flea counts from experimental infestations. The first treatment group is to be the control group and the second treatment group to be the test group.
(§2) The dogs are to be housed individually during the study period and are to be fed a commercial dry dog food ration with ad libitum access to water.
(§3) Each dog in the test group is to receive by mouth a liquid formulation of spinosyn preferably spinosad. The dosage of 2.5 mg/kg of the dog's weight is to be administered to the dogs on each of days 0-29 and the dosage of 5 mg/kg of the dog's weight is to be administered on days 30-50.
Dogs in the control group are not to receive spinosyn or any other tick control treatment. Each dog in the test group is to be offered its daily ration (dry food) and the individual doses of liquid formulation are to be administered after the individual dog has eaten at least 25% of its total daily ration. After receiving the dose of spinosyn the dogs are to be allowed to continue eating. This mimics incorporating the spinosyn in feed. Each dog in the test group and the control group is to be experimentally infested with 50 unfed adult ticks (ca. 50% male/50% female) on test days 12, 19, 28, 35, 42, 49 and 56. Comb counts for attached live and moribund adult ticks are to be conducted on days 14, 21, 30, 37, 44, 51 and 58. Note that the dosage is to be increased at day 30 and the final dose is to be given on day 50.
Using the same study method as described above, blood is to be drawn at 72, 120, 168, 336, 504, 720 and 888 hours after the initial dose of spinosyn is administered. The average concentration of spinosyn in the blood for different dosage levels can then be determined.
Referring now to TABLE 1 and FIG. 2. Sample results are shown for the average plasma concentration of spinosad in a canine's blood (ng/mL) versus time in hours for different dosage levels of spinosad. By way of comparison, the average plasma concentration of spinosyn for a single-dose administration to be given monthly (squares) is shown with the average plasma concentration of spinosyn for a substantially daily dose of 2.5 mg/kg/day or 5.0 mg/kg/day (circles). The daily dose is increased from 2.5 mg/kg/day to 5.0 mg/kg/day at about hour 700 (around day 30).

Rhipicephalus sanguineus = test: Efficacy of spinosyn administered per os to dogs for treatment and control of Rhipicephalus sanguineus (tick comb counts); assay type: in vivo; details: oral daily dose increased from 2.5 to 5.0 mg/kg/day around day 30, days 37-50, FIG. 1
Excerpt: Efficacy of Spinosyn Administered per os, i.e. by Mouth, to Dogs for the Treatment and Control of Rhipicephalus sanguineus.
as §1, §2, §3
Dogs in the control group are not to receive spinosyn or any other tick control treatment. […]
Results: Referring now to FIG. 1. […] Percent Efficacy is determined according to the formula [AM ticks CONTROL−AM ticks TREATED]/AM ticks Control. […]

Substance: spinosad
- Average Plasma Concentration ([1]; oral daily 2.5-5.0 mg/kg/day spinosad (2.5 mg/kg/day phase), 72 hours): 221.50 ng/mL
- Average Plasma Concentration ([1]; oral daily 2.5-5.0 mg/kg/day spinosad (2.5 mg/kg/day phase), 120 hours): 327.07 ng/mL
- Average Plasma Concentration ([1]; oral daily 2.5-5.0 mg/kg/day spinosad (2.5 mg/kg/day phase), 168 hours): 455.78 ng/mL
- Average Plasma Concentration ([1]; oral daily 2.5-5.0 mg/kg/day spinosad (2.5 mg/kg/day phase), 336 hours): 566.25 ng/mL
- Average Plasma Concentration ([1]; oral daily 2.5-5.0 mg/kg/day spinosad (2.5 mg/kg/day phase), 504 hours): 668.77 ng/mL
- Average Plasma Concentration ([1]; oral daily 2.5-5.0 mg/kg/day spinosad (5.0 mg/kg/day phase), 888 hours): 635.72 ng/mL
- Average Plasma Concentration ([1]; oral daily 2.5-5.0 mg/kg/day spinosad (5.0 mg/kg/day phase), 1056 hours): 967.33 ng/mL
- Average Plasma Concentration ([1]; oral daily 2.5-5.0 mg/kg/day spinosad (after final dose on day 50), 1392 hours): 761.45 ng/mL
- Average Plasma Concentration ([1]; oral daily 2.5-5.0 mg/kg/day spinosad (dose raised to 5.0 mg/kg/day at about hour 700), 720 hours): 533.12 ng/mL
- Percent Efficacy (reduction in attached live and moribund adult tick counts vs control) (Rhipicephalus sanguineus): increase in efficacy is clear

Source: patent US20230413818A1, “FEED AND METHODS FOR CONTROLLING TICK INFESTATIONS IN A MAMMAL” (In the Bowl Animal Health, Inc., priority 2021, published 2023)
